Results on eleven compounds are retold here after PubChem BioAssay (NCI).

Test systems include SK-OV-3 ovarian; HCT-116 colon; NCI-H460 lung; ACHN renal; NCI-H23 lung; UO-31 renal; OVCAR-4 ovarian; HCC-2998 colon; HOP-92 NSCLC; HT29 colon.
Holding throughout (test): growth of human tumour cells (NCI), 48 h

Where “and” joins values, the source holds several entries; their conditions need not be identical. Equal entries are not always repeated.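 Where inhibition never reached the appropriate level, the endpoint shown equals the highest concentration tested. Otherwise, values were interpolated linearly from a five-concentration, 48-hour dose response in 96-well plates. GI50: concentration for 50% inhibition of growth. The concentration for full growth arrest is given as TGI.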

For the compound `O=c1c(Oc2ccc(F)cc2F)cc2cnc(NC3CCOCC3)nc2n1CCCO`, the GI50 with SK-OV-3 ovarian was greater than 25 µM; in the assay on HCT-116 colon, greater than 25 µM; in the assay with NCI-H460 lung, greater than 25 µM; with ACHN renal it was greater than 25 µM; in the assay with NCI-H23 lung, greater than 25 µM; in the assay with UO-31 renal, greater than 11.3 µM. In addition, the GI50 was greater than 14.6 µM in the assay on OVCAR-4 ovarian, greater than 25 µM with HCC-2998 colon, greater than 25 µM with HOP-92 NSCLC and greater than 25 µM in the assay on HT29 colon. Moreover, the TGI is greater than 25 µM in the assay on SK-OV-3 ovarian; greater than 25 µM in the assay with HCT-116 colon; greater than 25 µM in the assay on NCI-H460 lung; greater than 25 µM in the assay on ACHN renal; greater than 25 µM in the assay with NCI-H23 lung; greater than 21.1 µM in the assay on UO-31 renal. The TGI in the assay with OVCAR-4 ovarian, in the assay with HCC-2998 colon, with HOP-92 NSCLC and in the assay on HT29 colon was greater than 25 µM throughout.
In the case of `O=C1c2ccccc2C(Br)(Br)c2ccccc21`, the TGI in the assay with SK-OV-3 ovarian was greater than 31.6 µM; with HCT-116 colon, greater than 31.6 µM; with NCI-H460 lung, greater than 31.6 µM; in the assay on ACHN renal, greater than 31.6 µM; with NCI-H23 lung, greater than 100 µM; with UO-31 renal, greater than 31.6 µM. Moreover, the TGI with OVCAR-4 ovarian was greater than 31.6 µM; with HCC-2998 colon it was greater than 31.6 µM; in the assay on HOP-92 NSCLC, greater than 100 µM; in the assay with HT29 colon, greater than 100 µM.
For the compound `COc1cccc(-c2cc(=O)c3cc(OC)ccc3[nH]2)c1`, the TGI in the assay on SK-OV-3 ovarian is 41.5 µM; in the assay on HCT-116 colon, 22.6 µM; in the assay with NCI-H460 lung, greater than 100 µM; in the assay with ACHN renal, greater than 100 µM; with UO-31 renal, greater than 100 µM; in the assay with OVCAR-4 ovarian, greater than 100 µM. Besides, the TGI is 2.59 µM and 0.443 µM in the assay with HCC-2998 colon; 1.42 µM with HT29 colon. Besides, the GI50 in the assay on HCT-116 colon is 0.0541 µM; in the assay with NCI-H460 lung, 0.0823 µM; in the assay with ACHN renal it was 0.661 µM; in the assay on NCI-H23 lung, 0.358 µM; in the assay with UO-31 renal it was 0.484 µM; with HCC-2998 colon, 0.118 µM. The GI50 with HOP-92 NSCLC was 7.15 µM.
Take `COc1ccc(C(=O)/C=C/c2ccc(C)cc2)cc1OC`: the GI50 is 14 µM in the assay with SK-OV-3 ovarian; 4.69 µM in the assay on HCT-116 colon; 7.77 µM with NCI-H460 lung; 14.2 µM in the assay with ACHN renal; 10.4 µM in the assay with NCI-H23 lung; 11 µM in the assay on UO-31 renal. Further, the GI50 was 12.2 µM with OVCAR-4 ovarian, 14.4 µM with HCC-2998 colon, 12.6 µM in the assay with HOP-92 NSCLC and 3.93 µM with HT29 colon. Besides, the TGI was found to be 27.4 µM with SK-OV-3 ovarian; 17.7 µM with HCT-116 colon; 20.5 µM in the assay on NCI-H460 lung; 28.1 µM with ACHN renal; 22.8 µM in the assay with NCI-H23 lung; 26.8 µM in the assay on UO-31 renal. The TGI in the assay on OVCAR-4 ovarian turned out to be 24.7 µM; with HCC-2998 colon it was 27.4 µM; with HOP-92 NSCLC, 27 µM; in the assay on HT29 colon it was 15.3 µM.
Take `OCc1ccc(-c2ccc(-c3ccc(CO)o3)[se]2)o1`: the GI50 in the assay on SK-OV-3 ovarian is greater than 100 µM; with HCT-116 colon, 69.4 µM; in the assay with NCI-H460 lung it was greater than 72.7 µM; with ACHN renal, greater than 100 µM; in the assay with NCI-H23 lung it was greater than 100 µM; in the assay with UO-31 renal, greater than 95.3 µM. Moreover, the GI50 in the assay with OVCAR-4 ovarian was 35.4 µM; in the assay with HCC-2998 colon, greater than 100 µM; in the assay on HOP-92 NSCLC, 48.2 µM; in the assay with HT29 colon, greater than 95 µM. The TGI with SK-OV-3 ovarian, in the assay on HCT-116 colon, with NCI-H460 lung, in the assay with ACHN renal, with NCI-H23 lung and in the assay on UO-31 renal was greater than 100 µM in each case. Also, the TGI in the assay on OVCAR-4 ovarian, in the assay on HCC-2998 colon, in the assay with HOP-92 NSCLC and in the assay on HT29 colon was greater than 100 µM each time.
In the case of `Cc1nn(-c2nc3ccccc3[nH]2)c(N)c1-c1ccc(Cl)cc1`, the GI50 is 7.4 µM in the assay with SK-OV-3 ovarian; 4.37 µM in the assay on HCT-116 colon; 2.96 µM with NCI-H460 lung; 4.6 µM with ACHN renal; 5.23 µM with NCI-H23 lung; 3.79 µM in the assay with UO-31 renal. For the same compound, the GI50 in the assay on OVCAR-4 ovarian was 5.1 µM; in the assay with HCC-2998 colon it was 5.12 µM; with HOP-92 NSCLC, 3.28 µM; in the assay with HT29 colon, 4.35 µM. Further, the TGI in the assay with SK-OV-3 ovarian, in the assay on HCT-116 colon, in the assay on NCI-H460 lung, in the assay with ACHN renal, with NCI-H23 lung and in the assay with UO-31 renal was greater than 100 µM in each case. For the same compound, the TGI is greater than 100 µM with OVCAR-4 ovarian, greater than 100 µM with HCC-2998 colon, 75.4 µM in the assay with HOP-92 NSCLC and 67.8 µM with HT29 colon.
As for `COc1cc(C#Cc2ccc(=O)oc2C#Cc2ccccc2)cc(OC)c1OC`, the GI50 in the assay on SK-OV-3 ovarian was 15.2 µM; in the assay on HCT-116 colon, 2.04 µM; in the assay with NCI-H460 lung, 3.94 µM; in the assay with ACHN renal, 2.13 µM; in the assay on NCI-H23 lung, 2.59 µM; in the assay on UO-31 renal, 1.51 µM. The GI50 in the assay with OVCAR-4 ovarian is 4.97 µM; in the assay with HCC-2998 colon, 2.6 µM; in the assay on HOP-92 NSCLC, 5.13 µM; in the assay with HT29 colon, 2.44 µM. The TGI was greater than 74.5 µM in the assay with SK-OV-3 ovarian; 4.57 µM with HCT-116 colon; 16.4 µM in the assay with NCI-H460 lung; 4.23 µM in the assay with ACHN renal; 7.63 µM with NCI-H23 lung; 3.04 µM in the assay on UO-31 renal. In addition, the TGI in the assay with OVCAR-4 ovarian is 68.6 µM; in the assay on HCC-2998 colon, 9.87 µM; with HOP-92 NSCLC, 12.4 µM; in the assay on HT29 colon, 6.6 µM.
In the case of `O=C(CO[N+](=O)[O-])Nc1ccc(C(=O)/C=C/c2ccc(Cl)cc2)cc1`, the GI50 is 10.1 µM in the assay on SK-OV-3 ovarian; 0.298 µM with HCT-116 colon; 12.7 µM with NCI-H460 lung; 3.3 µM with ACHN renal; 4.55 µM with NCI-H23 lung; 1.52 µM with UO-31 renal. In addition, the GI50 was 4.06 µM in the assay with OVCAR-4 ovarian, 1.75 µM in the assay on HCC-2998 colon, 2.95 µM in the assay with HOP-92 NSCLC and 2.36 µM in the assay with HT29 colon. Further, the TGI stood at 65.9 µM with SK-OV-3 ovarian; 1.09 µM in the assay with HCT-116 colon; 54.9 µM with NCI-H460 lung; 17 µM in the assay with ACHN renal; 22.1 µM with NCI-H23 lung; 12.1 µM in the assay on UO-31 renal. For the same compound, the TGI in the assay with OVCAR-4 ovarian was determined as 21 µM; in the assay with HCC-2998 colon, 3.64 µM; with HOP-92 NSCLC, 15.2 µM; in the assay on HT29 colon it was 6.36 µM.
For `CCC[CH2][Sn]1([CH2]CCC)[O]CC(Cc2ccccc2)[O]1` (stereo not given), the GI50 is 12 µM in the assay with SK-OV-3 ovarian; 3.75 µM in the assay with HCT-116 colon; 11 µM in the assay on NCI-H460 lung; 2.22 µM with ACHN renal; 1.53 µM with NCI-H23 lung; 6.17 µM with UO-31 renal. The GI50 was 13.2 µM in the assay on OVCAR-4 ovarian, 7.25 µM with HCC-2998 colon, 2.9 µM in the assay on HOP-92 NSCLC and 4.43 µM with HT29 colon. Also, the TGI in the assay on SK-OV-3 ovarian turned out to be 25.1 µM; with HCT-116 colon, 13.5 µM; with NCI-H460 lung, 23.4 µM; in the assay with ACHN renal it was 4.39 µM; in the assay on NCI-H23 lung, 4.05 µM; in the assay on UO-31 renal it was 19 µM. The TGI was determined as 26 µM in the assay with OVCAR-4 ovarian, 20.2 µM in the assay on HCC-2998 colon, 8.67 µM in the assay with HOP-92 NSCLC and 14.5 µM in the assay on HT29 colon.
With `CCOC(=O)C1N(S(=O)(=O)c2ccc(C)cc2)CCC12c1ccccc1N(C(C)=O)C2c1ccc(OC)c(OC)c1` (stereo not given), the TGI with SK-OV-3 ovarian, with HCT-116 colon, in the assay with NCI-H460 lung, with ACHN renal, in the assay on NCI-H23 lung and in the assay on UO-31 renal was greater than 100 µM each time. For the same compound, the TGI with OVCAR-4 ovarian, in the assay on HCC-2998 colon, with HOP-92 NSCLC and in the assay with HT29 colon was greater than 100 µM in each case.
In the case of `Cc1ccc(NC(=O)C2C(=O)N(c3ccc(C)cc3)C(=O)/C2=N\NC(N)=S)cc1` (stereo not given), the TGI in the assay with SK-OV-3 ovarian, with HCT-116 colon, in the assay with NCI-H460 lung, in the assay with ACHN renal, with NCI-H23 lung and in the assay with UO-31 renal was greater than 100 µM in each case. The TGI with OVCAR-4 ovarian, with HCC-2998 colon, with HOP-92 NSCLC and in the assay with HT29 colon was greater than 100 µM each time.
